Measured values from ChEMBL document CHEMBL2073973, “Mitotracker green is a P-glycoprotein substrate” (Biosci Rep, 2003).

Target: ATP-dependent translocase ABCB1 (Homo sapiens, UniProt P08183)
Experiment: TP_TRANSPORTER: cell accumulation in Lucena-1 cells
Format: functional, cell-based

Chain of ATP-dependent translocase ABCB1 (P08183 whole entry): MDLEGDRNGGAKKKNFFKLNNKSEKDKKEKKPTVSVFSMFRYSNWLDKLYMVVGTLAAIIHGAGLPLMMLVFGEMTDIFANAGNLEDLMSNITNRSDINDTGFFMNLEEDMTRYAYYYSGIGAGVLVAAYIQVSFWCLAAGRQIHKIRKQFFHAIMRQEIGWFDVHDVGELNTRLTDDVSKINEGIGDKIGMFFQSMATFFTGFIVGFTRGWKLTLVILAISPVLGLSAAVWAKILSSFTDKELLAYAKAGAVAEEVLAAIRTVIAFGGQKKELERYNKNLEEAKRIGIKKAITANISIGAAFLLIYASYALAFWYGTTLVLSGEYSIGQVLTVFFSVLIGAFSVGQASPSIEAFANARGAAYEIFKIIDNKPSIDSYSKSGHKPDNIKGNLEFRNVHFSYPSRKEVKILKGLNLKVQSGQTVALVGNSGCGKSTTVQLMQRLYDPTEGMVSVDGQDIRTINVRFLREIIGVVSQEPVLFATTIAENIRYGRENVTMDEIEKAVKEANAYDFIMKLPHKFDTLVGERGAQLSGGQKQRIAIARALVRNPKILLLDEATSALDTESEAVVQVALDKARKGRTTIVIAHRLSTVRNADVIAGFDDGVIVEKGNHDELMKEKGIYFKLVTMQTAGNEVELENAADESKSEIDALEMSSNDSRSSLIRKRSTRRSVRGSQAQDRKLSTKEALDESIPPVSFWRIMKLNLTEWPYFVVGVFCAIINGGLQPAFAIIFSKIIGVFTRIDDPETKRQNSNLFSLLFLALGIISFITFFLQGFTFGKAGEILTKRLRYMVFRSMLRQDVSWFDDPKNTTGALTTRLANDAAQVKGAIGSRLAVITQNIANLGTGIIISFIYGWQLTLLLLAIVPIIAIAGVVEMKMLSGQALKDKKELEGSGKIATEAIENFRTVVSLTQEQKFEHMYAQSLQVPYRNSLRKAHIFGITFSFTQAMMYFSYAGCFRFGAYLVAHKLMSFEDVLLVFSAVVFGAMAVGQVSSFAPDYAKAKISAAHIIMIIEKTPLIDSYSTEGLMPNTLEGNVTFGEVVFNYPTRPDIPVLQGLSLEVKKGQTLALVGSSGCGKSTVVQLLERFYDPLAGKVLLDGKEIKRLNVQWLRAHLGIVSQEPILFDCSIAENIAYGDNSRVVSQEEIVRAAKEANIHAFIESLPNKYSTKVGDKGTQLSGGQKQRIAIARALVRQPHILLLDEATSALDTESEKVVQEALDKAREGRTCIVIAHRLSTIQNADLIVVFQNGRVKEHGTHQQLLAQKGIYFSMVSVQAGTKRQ

For CN1C(=CC=Cc2n(Cc3ccc(CCl)cc3)c3cc(Cl)c(Cl)cc3[n+]2Cc2ccc(CCl)cc2)Oc2ccccc21.[Cl-] [MITOTRACKER GREEN], the Activity was “substrate [+]”.
